In US20130165368A1, “ANTIMICROBIAL COMPOUNDS” (priority 2010, published 2013):
Values after ≈ are worked out from the molar mass of the structure shown. Read-outs that look alike come from different tables or passages of the source.

Assays:
Format in all cases: cell-based
Listeria monocytogenes = assay: MIC agar dilution, micro-organism 15 (11994); details: Listeria monocytogenes 11994, read-out: MIC
In short: (§1)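 Agar dilution in Isosensitest/CCEY agar with egg yolk and lysed horse blood; compounds as aqueous emulsions (myristyl and lauryl alcohol with 1-methyl-2-pyrrolidone and Tween 20). 1 µL spots of 1/15-diluted 0.5 McFarland suspensions, 37 °C aerobic, read at 22 and 48 h; MIC (mmol/L) is lowest concentration giving <10 colonies.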

Escherichia coli = assay: MIC agar dilution, micro-organism 1 (10418); details: Escherichia coli 10418, read-out: MIC
In short: as §1

[1] = test system: Enterococcus faecium (VRE) 12185 Clin waste; assay: MIC agar dilution, VRE strain 24
Method: (§2) Molar equivalent concentrations were used to allow comparison between compounds of differing molecular mass. Due to weighing difficulties, any compound in solid form was melted in a water bath prior to dilution. To make ten-times strength concentrations, which takes into account agar dilution, 0.0352 mmol of each compound was weighed into plastic universal bottles and 4 mL of sterile distilled water (SDW) was added. To produce a homogenous emulsion the universals were vortexed; once achieved the emulsions were serial diluted by adding 2 mL to 2 mL of SDW.
(§3) For every 100 mL of Isosensitest agar (IST) (CM0471; Oxoid, Basingstoke, England), 3.1 g of the IST powder was added to 100 mL SDW (as per manufacturer's instructions) and sterilised for 15 minutes at 121° C. Once sterilised, the molten agar was cooled to 50° C. in a water-bath. Subsequently 4.8 g of CCEY powder (BC2160; Bioconnections, Wetherby, England), also known as Brazier's medium, was added to 100 mL SDW for every 100 mL of agar needed. This was then sterilised for 15 minutes at 121° C. Once sterilised the molten agar was cooled to 50° C. in a water-bath and 4 mL of egg-yolk emulsion (S2073; TCS Biosciences Ltd, Buckingham, United Kingdom) and 1 mL of lysed defibrinated horse blood (HB035; TCS Biosciences Ltd, Buckingham, United Kingdom) were also added for every 100 mL needed. Horse blood lysis is achieved by dilution to half concentration with SDW; when fully lysed the mixture will turn dark red in colour.
(§4) 18 mL agar was added to each universal and then poured into sterile Petri dishes. This step creates a 1/10 dilution resulting in agar plates of the required strength. Control plates for each set of strains were created by adding 18 mL of agar to 2 mL of SDW.
(§5) Suspensions of each bacterial species were prepared with a density equal to that of a 0.5 McFarland standard using a densitometer. All suspensions were made using sterile distilled water and fresh 18-20 hour cultures. As a 0.5 McFarland standard contains 1.5×10^8 CFU/mL and the multipoint inoculators applies 1 μL spots of liquid, each bacterial suspension was diluted 1/15 (20 μL suspension to 280 μL sterile distilled water).
(§6) Bacterial suspensions were prepared from fresh 18-24 hour cultures as previously described. 1 μL of each strain was inoculated onto all 100 agar plates containing a different chemical concentration and the 2 control plates. This was done using a multipoint inoculator which inoculates 20 strains per plate. All plates were incubated for 22 hours at 37° C. in aerobic conditions.
(§7) Each plate was examined for bacterial growth after 22 and 48 hours, with each being incubated in between examinations. A positive result was recorded as growth of ≧10 colonies. A negative result was recorded as growth of <10 colonies as this is equivalent to 99.9% inhibition. The lowest concentration of chemical that inhibited growth was recorded as the MIC. The results are recorded in Table IV below, where the numbers are quoted in mmol/L.
(§8) Given the positive performance of the ethoxylates of lauryl alcohol in reducing the MIC for a number of the micro-organisms tested, further MIC testing of Laureth-1 [C12E1] through to Laureth-8 [C12E8] was conducted on each of the following: • 10 strains of vancomycin-resistant enterococci (VRE)—listed in Table V below; and • 20 strains of methicillin-resistant Staphylococcus aureus (MRSA)—listed in Table VI.
(§9) The alkanol, alkanol derivatives, agar plates, and inocula were all prepared in the same way as described above.
(§10) The plates were examined in the same manner as described above and the results are recorded in Table VII below, where the numbers are quoted in mmol/L.

MRSA FIN 54511 (E6) = assay: MIC agar dilution, MRSA strain 32; details: Staphylococcus aureus
Method: as §2, §3, §4, §5, §6, §7, §8, §9, §10

Enterococcus faecium = assay: MIC agar dilution, micro-organism 16 (7171); details: Enterococcus faecium 7171, read-out: MIC
In short: as §1

[2] = test system: Enterococcus casseliflavus (VRE) Clin waste; assay: MIC agar dilution, VRE strain 23
Method: as §2, §3, §4, §5, §6, §7, §8, §9, §10

Candida albicans = assay: MIC agar dilution, micro-organism 19 (90028); details: Candida albicans 90028, read-out: MIC
In short: as §1

[3] = test system: Enterococcus faecium (VRE) 255693 N. Tyneside; assay: MIC agar dilution, VRE strain 22
Method: as §2, §3, §4, §5, §6, §7, §8, §9, §10

MRSA FIN 54518 (E7) = assay: MIC agar dilution, MRSA strain 31; details: Staphylococcus aureus
Method: as §2, §3, §4, §5, §6, §7, §8, §9, §10

[4] = test system: Enterococcus faecalis (VRE) MB 726; assay: MIC agar dilution, VRE strain 28
Method: as §2, §3, §4, §5, §6, §7, §8, §9, §10

[5] = test system: Enterococcus faecium (VRE) NCTC 12952; assay: MIC agar dilution, VRE strain 30
Method: as §2, §3, §4, §5, §6, §7, §8, §9, §10

MRSA EMRSA 15 19972/98 = assay: MIC agar dilution, MRSA strain 39; details: Staphylococcus aureus
Method: as §2, §3, §4, §5, §6, §7, §8, §9, §10

[6] = test system: Enterococcus faecalis (VRE) PHLS URINE 2000; assay: MIC agar dilution, VRE strain 21
Method: as §2, §3, §4, §5, §6, §7, §8, §9, §10

SMILES: CCCCCCCCCCCCOCCOCCOCCOCCOCCOCCOCCOCCO [L8, Octaethylene Glycol Monododecyl Ether]
- MIC (Listeria monocytogenes; 22 hrs): 440 µM (≈ 237 µg/mL)
- MIC (Listeria monocytogenes; 48 hrs): > 880 µM
- MIC (Escherichia coli; 22 hrs): > 880 µM
- MIC (Escherichia coli; 48 hrs): > 880 µM
- MIC ([1]; 22 hrs): > 880 µM
- MIC ([1]; 48 hrs): > 880 µM
- MIC (MRSA FIN 54511 (E6); 22 hrs): 220 µM (≈ 119 µg/mL)
- MIC (MRSA FIN 54511 (E6); 48 hrs): > 440 µM
- MIC (Enterococcus faecium; 22 hrs): > 880 µM
- MIC (Enterococcus faecium; 48 hrs): > 880 µM
- MIC ([2]; 22 hrs): 440 µM (≈ 237 µg/mL)
- MIC ([2]; 48 hrs): 440 µM (≈ 237 µg/mL)
- MIC (Candida albicans; 22 hrs): > 880 µM
- MIC (Candida albicans; 48 hrs): > 880 µM
- MIC ([3]; 22 hrs): > 880 µM
- MIC ([3]; 48 hrs): > 880 µM
- MIC (MRSA FIN 54518 (E7); 22 hrs): > 440 µM
- MIC (MRSA FIN 54518 (E7); 48 hrs): > 440 µM
- MIC ([4]; 22 hrs): 880 µM (≈ 474 µg/mL)
- MIC ([4]; 48 hrs): > 880 µM
- MIC ([5]; 22 hrs): > 880 µM
- MIC ([5]; 48 hrs): > 880 µM
- MIC (MRSA EMRSA 15 19972/98; 22 hrs): > 440 µM
- MIC (MRSA EMRSA 15 19972/98; 48 hrs): > 440 µM
- MIC ([6]; 22 hrs): 220 µM (≈ 119 µg/mL)
- MIC ([6]; 48 hrs): 220 µM (≈ 119 µg/mL)
